Source: patent publication US8486939B2, “Pyrimidinyl and 1,3,5-triazinyl benzimidazoles and their use in cancer therapy” (Pathway Therapeutics Inc., priority 2009, dated 2013)

Legend:
p110α/p85 = p110α/p85 (Homo sapiens, UniProt P42336); test: Inhibition of isolated enzyme (lipid kinase assay, [γ33P]ATP, TLC); assay type: biochemical; conditions: recombinant enzyme, 100 μM ATP, 1 hr room temperature, average of two experiments
Experimental: (§1) Compounds were evaluated for their ability to inhibit Class I PI 3-kinase enzymes p110δ/p85, p110α/p85, and p110β/p85. Reaction mixtures comprising 0.1 μg of a recombinant enzyme, 10 μg of L-α-phosphatidylinositol, and 2× Lipid Kinase Buffer (40 mM Tris-HCl, pH 7.4, 200 mM NaCl, 1 mM EDTA), which contains either DMSO only as a control or the test compound in DMSO (the final DMSO concentration is 1%), were activated by the addition of an ATP mix (5 mM MgCl2, 100 μM ATP, and 0.1 μL [γ^33P]ATP). Reactions were incubated at room temperature for 1 hr, and then stopped by the addition of 1M HCl. The lipids were then extracted using a two step procedure. Firstly, 200 μL of chloroform/methanol (1:1) was added, the biphasic reactions mixed and centrifuged briefly, and the inorganic phase was removed and discarded. Following this, 80 μL of methanol:HCl (1:1) was added and the same procedure followed. The organic phase (70 μL) was then transferred to a clean 1.6 mL tube and the reactions were dried using a Speedvac, with no heating, for […]. The reactions were spotted onto TLC plates (Merck Ltd) and developed for 1 hr in propanol-1:2 M acetic acid (13:7). The TLC plates were then dried at room temperature and quantified using a phosphorimager (StormImager, Amersham). Nine compound concentrations were used for each test compound to determine its IC50 value. Each experiment was performed twice and the average IC50 value is used herein.

p110β/p85 = p110β/p85 (Homo sapiens, UniProt P42338); test: as above; assay type: biochemical; conditions: recombinant enzyme, 100 μM ATP, 1 hr room temperature, average of two experiments
Chain of p110β/p85 (P42338 whole entry, species assumed): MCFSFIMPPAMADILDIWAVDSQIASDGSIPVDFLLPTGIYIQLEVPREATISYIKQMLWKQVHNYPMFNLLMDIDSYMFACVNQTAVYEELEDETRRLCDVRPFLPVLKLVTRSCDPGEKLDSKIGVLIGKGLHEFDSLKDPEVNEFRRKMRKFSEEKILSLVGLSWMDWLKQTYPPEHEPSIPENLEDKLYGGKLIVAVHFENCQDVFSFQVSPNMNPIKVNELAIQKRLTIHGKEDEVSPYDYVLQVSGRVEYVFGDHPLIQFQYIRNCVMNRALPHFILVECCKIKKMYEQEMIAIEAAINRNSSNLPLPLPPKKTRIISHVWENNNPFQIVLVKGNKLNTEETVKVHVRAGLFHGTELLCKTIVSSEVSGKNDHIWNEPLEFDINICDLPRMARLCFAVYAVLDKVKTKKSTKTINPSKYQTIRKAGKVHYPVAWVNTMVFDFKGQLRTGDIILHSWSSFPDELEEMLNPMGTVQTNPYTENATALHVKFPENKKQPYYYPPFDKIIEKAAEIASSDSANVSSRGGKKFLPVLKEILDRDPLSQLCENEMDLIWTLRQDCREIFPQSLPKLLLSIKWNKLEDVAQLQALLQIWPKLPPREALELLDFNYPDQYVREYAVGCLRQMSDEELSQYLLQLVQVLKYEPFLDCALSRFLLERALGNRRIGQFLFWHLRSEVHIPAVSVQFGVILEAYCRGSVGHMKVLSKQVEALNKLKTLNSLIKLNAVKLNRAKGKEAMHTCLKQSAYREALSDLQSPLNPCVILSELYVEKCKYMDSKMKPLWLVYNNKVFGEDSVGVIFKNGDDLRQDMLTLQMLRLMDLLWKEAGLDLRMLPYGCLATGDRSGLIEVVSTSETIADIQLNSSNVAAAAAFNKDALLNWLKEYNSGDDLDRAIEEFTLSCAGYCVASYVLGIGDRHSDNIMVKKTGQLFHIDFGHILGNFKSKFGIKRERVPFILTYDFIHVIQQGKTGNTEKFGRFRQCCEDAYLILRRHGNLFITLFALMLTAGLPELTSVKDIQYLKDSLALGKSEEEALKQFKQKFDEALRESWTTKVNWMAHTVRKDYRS
Chain of p110β/p85 (P27986 whole entry partner, species assumed): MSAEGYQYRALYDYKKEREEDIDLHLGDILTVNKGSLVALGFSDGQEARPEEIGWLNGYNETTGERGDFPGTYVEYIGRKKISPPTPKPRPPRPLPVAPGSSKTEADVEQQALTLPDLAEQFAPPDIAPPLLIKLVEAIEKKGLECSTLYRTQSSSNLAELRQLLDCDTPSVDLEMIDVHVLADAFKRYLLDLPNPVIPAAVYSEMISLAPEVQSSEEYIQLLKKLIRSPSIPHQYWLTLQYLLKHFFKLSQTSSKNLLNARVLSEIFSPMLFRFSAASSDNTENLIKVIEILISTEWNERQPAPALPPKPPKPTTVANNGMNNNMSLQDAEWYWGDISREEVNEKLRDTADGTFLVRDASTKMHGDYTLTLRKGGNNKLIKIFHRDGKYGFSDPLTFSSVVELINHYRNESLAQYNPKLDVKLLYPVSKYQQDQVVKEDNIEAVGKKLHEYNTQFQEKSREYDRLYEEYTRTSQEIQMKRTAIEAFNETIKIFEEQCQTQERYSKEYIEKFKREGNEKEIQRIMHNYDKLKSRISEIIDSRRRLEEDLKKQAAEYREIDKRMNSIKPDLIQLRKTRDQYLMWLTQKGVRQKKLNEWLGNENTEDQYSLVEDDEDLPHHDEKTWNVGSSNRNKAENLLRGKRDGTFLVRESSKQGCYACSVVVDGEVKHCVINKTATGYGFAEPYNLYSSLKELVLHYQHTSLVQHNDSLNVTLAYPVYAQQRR
Experimental: as §1

p110δ/p85 = p110δ/p85 (Homo sapiens, UniProt O00329); test: as above; assay type: biochemical; conditions: recombinant enzyme, 100 μM ATP, 1 hr room temperature, average of two experiments
Chain of p110δ/p85 (O00329 whole entry, species assumed): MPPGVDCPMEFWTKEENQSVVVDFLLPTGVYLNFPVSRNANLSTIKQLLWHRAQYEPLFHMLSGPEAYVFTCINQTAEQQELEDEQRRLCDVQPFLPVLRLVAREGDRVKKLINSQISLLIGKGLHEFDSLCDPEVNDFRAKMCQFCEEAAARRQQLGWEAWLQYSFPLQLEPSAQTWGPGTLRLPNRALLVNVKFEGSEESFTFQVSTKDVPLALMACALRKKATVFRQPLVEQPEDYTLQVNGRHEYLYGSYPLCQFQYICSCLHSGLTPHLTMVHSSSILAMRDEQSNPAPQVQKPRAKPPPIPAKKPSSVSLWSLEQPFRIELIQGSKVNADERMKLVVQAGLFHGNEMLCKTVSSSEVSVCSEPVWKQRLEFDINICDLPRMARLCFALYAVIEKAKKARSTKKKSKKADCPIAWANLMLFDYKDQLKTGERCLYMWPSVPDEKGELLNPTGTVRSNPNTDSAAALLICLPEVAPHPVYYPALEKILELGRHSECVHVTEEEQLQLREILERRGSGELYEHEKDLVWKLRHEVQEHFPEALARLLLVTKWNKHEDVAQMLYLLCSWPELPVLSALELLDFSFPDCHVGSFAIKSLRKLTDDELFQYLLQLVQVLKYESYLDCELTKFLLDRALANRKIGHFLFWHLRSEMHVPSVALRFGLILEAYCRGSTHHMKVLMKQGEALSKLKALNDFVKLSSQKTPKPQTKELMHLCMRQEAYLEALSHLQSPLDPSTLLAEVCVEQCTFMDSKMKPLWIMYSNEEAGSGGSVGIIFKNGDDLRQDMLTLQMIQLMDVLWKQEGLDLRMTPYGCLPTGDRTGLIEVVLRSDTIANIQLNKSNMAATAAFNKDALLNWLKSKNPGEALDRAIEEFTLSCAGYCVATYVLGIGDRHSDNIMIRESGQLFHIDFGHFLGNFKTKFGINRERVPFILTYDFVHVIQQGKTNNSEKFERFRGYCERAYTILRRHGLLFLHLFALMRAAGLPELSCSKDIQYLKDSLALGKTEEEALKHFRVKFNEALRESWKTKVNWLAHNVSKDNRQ
Chain of p110δ/p85 (P27986 whole entry partner, species assumed): as the sequence (P27986 whole entry partner, species assumed) above
Experimental: as §1

NZB5 = test: Cellular growth inhibition (3H-thymidine incorporation); assay type: cell-based; conditions: Homo sapiens, five days incubation, 3H-thymidine over the last 6 hrs, read-out: Cell IC50* NZB5
Experimental: (§2) The compounds were evaluated against two early passage human cell lines NZB5 and NZOV9 (Marshall et al., Oncol. Res. 2004, 14, 297). The cells were grown in ITS medium (α-modified minimal essential medium supplemented insulin, transferrin, selenite, and 5% fetal bovine serum) and grown on 96-well tissue culture plates under an atmosphere of 5% O2, 5% CO2, and 90% N2. Individual wells contained 500-1,000 cells (depending on the growth rate) in a volume of 150 μL. Compounds were added at 10-fold concentration steps to a maximum of 20 μM and plates were incubated for five days, with ^3H-thymidine being added over the last 6 hrs. Cells were harvested and incorporated radioactivity measured. Duplicate samples were analyzed for each compound dose with multiple control samples. Data were fitted by a least-squares method to an exponential of the form y=y0+ae^−bx, where y is the radioactivity (corrected for background and normalized to 100% of the control), x is the […], and y0, a, and b are variables, and the IC50 value defined as the compound concentration reducing ^3H-thymidine levels by 50%.

NZOV9 = test: as above; assay type: cell-based; conditions: Homo sapiens, five days incubation, 3H-thymidine over the last 6 hrs, read-out: Cell IC50* NZOV9
Experimental: as §2

Chain of p110α/p85 (P42336 whole entry): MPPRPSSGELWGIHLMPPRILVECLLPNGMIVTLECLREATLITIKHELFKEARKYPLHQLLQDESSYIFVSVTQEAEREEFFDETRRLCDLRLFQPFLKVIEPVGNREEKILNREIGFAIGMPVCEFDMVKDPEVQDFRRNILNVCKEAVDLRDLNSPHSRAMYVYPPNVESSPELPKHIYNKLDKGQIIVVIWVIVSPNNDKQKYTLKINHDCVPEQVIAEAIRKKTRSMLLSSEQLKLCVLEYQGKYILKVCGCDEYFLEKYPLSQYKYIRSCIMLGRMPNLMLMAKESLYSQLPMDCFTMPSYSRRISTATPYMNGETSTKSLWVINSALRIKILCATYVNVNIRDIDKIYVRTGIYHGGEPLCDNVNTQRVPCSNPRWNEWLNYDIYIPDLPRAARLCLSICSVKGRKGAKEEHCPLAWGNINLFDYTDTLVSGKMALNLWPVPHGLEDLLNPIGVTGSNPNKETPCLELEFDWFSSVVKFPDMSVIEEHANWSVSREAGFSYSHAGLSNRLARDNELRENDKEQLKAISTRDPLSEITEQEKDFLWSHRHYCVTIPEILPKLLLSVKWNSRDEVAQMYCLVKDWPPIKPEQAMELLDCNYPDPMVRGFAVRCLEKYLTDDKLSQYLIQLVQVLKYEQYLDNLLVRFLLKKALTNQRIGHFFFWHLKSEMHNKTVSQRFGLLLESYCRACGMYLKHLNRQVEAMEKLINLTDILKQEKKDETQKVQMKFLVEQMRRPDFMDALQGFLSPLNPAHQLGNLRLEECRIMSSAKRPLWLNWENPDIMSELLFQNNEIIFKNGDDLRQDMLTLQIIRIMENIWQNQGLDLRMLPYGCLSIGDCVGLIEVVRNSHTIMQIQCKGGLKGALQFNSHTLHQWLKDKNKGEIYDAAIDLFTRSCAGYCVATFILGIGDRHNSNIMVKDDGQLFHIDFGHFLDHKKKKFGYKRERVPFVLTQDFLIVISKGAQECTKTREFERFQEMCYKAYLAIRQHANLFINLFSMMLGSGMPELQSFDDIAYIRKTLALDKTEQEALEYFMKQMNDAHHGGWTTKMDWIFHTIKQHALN
Chain of p110α/p85 (P27986 whole entry partner): as the sequence (P27986 whole entry partner, species assumed) above

Compound	IC50 (p110α/p85)	IC50 (p110β/p85)	IC50 (p110δ/p85)	IC50 (NZB5)	IC50 (NZOV9)	melting point
FC(F)c1nc2ccccc2n1-c1nc(NCc2cccnc2)nc(N2CCOCC2)n1 [Example 14, 4-[2-(difluoromethyl)-1H-benzimidazol-1-yl]-6-(4-morpholinyl)-N-(3-pyridinylmethyl)-1,3,5-triazin-2-amine]	100 to 1000 nM	100 to 1000 nM	< 100 nM	1000 to 10000 nM	100 to 1000 nM	160 to 161 °C
COc1ccc(Nc2nc(N3CCOCC3)nc(-n3c(C(F)F)nc4c(OC)cccc43)n2)cn1 [Example 28, 4-[2-(difluoromethyl)-4-methoxy-1H-benzimidazol-1-yl]-N-(6-methoxy-3-pyridinyl)-6-(4-morpholinyl)-1,3,5-triazin-2-amine]	< 100 nM	< 100 nM	< 100 nM	< 100 nM	< 100 nM	201 to 202 °C
FC(F)c1nc2ccccc2n1-c1nc(NCc2ccccc2)nc(N2CCOCC2)n1 [Example 8, N-benzyl-4-[2-(difluoromethyl)-1H-benzimidazol-1-yl]-6-(4-morpholinyl)-1,3,5-triazin-2-amine]	100 to 1000 nM	< 100 nM	< 100 nM	100 to 1000 nM	100 to 1000 nM	185 to 188 °C
CSc1nc2ccccc2n1-c1nc(Nc2cccnc2)nc(N2CCOCC2)n1 [Example 4, 4-[2-(methylsulfanyl)-1H-benzimidazol-1-yl]-6-(4-morpholinyl)-N-(3-pyridinyl)-1,3,5-triazin-2-amine]	1000 to 10000 nM	1000 to 10000 nM	100 to 1000 nM	< 100 nM	100 to 1000 nM	240 to 241 °C
COc1cccc2c1nc(C(F)F)n2-c1nc(Nc2cccnn2)nc(N2CCOCC2)n1 [Example 33, 4-[2-(difluoromethyl)-4-methoxy-1H-benzimidazol-1-yl]-6-(4-morpholinyl)-N-(3-pyridazinyl)-1,3,5-triazin-2-amine]	< 100 nM	100 to 1000 nM	< 100 nM	100 to 1000 nM	< 100 nM	261 to 263 °C
COc1cccc2c1nc(C(F)F)n2-c1nc(N2CCOCC2)nc(N(C)c2cccnc2)n1 [Example 3, 4-[2-(difluoromethyl)-4-methoxy-1H-benzimidazol-1-yl]-N-methyl-6-(4-morpholinyl)-N-(3-pyridinyl)-1,3,5-triazin-2-amine]	< 100 nM	< 100 nM	< 100 nM	100 to 1000 nM	< 100 nM	200 to 201 °C
COc1cccc2c1nc(C(F)F)n2-c1nc(Nc2ccc(N(C)C)nc2)nc(N2CCOCC2)n1 [Example 39, N^5-[4-[2-(difluoromethyl)-4-methoxy-1H-benzimidazol-1-yl]-6-(4-morpholinyl)-1,3,5-triazin-2-yl]-N^2,N^2-dimethyl-2,5-pyridinediamine]	< 100 nM	100 to 1000 nM	< 100 nM	< 100 nM	< 100 nM	136 to 137 °C
FC(F)c1nc2ccccc2n1-c1nc(Nc2cncnc2)nc(N2CCOCC2)n1 [Example 35, 4-[2-(difluoromethyl)-1H-benzimidazol-1-yl]-6-(4-morpholinyl)-N-(5-pyrimidinyl)-1,3,5-triazin-2-amine]		100 to 1000 nM				
FC(F)c1nc2ccccc2n1-c1nc(Oc2ccccc2)nc(N2CCOCC2)n1 [Example 10, 2-(difluoromethyl)-1-[4-(4-morpholinyl)-6-phenoxy-1,3,5-triazin-2-yl]-1H-benzimidazole]	> 10000 nM	> 10000 nM	1000 to 10000 nM	> 10000 nM	1000 to 10000 nM	228 to 231 °C
Cn1cc(Nc2nc(N3CCOCC3)nc(-n3c(C(F)F)nc4ccccc43)n2)cn1 [Example 25, 4-[2-(difluoromethyl)-1H-benzimidazol-1-yl]-N-(1-methyl-1H-pyrazol-4-yl)-6-(4-morpholinyl)-1,3,5-triazin-2-amine]	< 100 nM	100 to 1000 nM	< 100 nM	100 to 1000 nM	100 to 1000 nM	225 to 226 °C
CN(Cc1ccccc1)c1nc(N2CCOCC2)nc(-n2c(C(F)F)nc3ccccc32)n1 [Example 9, N-benzyl-4-[2-(difluoromethyl)-1H-benzimidazol-1-yl]-N-methyl-6-(4-morpholinyl)-1,3,5-triazin-2-amine]	1000 to 10000 nM	100 to 1000 nM	< 100 nM		100 to 1000 nM	147 to 150 °C
COc1ccncc1Nc1nc(N2CCOCC2)nc(-n2c(C(F)F)nc3ccccc32)n1 [Example 26, 4-[2-(difluoromethyl)-1H-benzimidazol-1-yl]-N-(4-methoxy-3-pyridinyl)-6-(4-morpholinyl)-1,3,5-triazin-2-amine]	< 100 nM	100 to 1000 nM	< 100 nM	100 to 1000 nM	100 to 1000 nM	161 to 163 °C
FC(F)c1nc2ccccc2n1-c1nc(Nc2cccnc2)nc(N2CCOCC2)n1 [Example 1, 4-[2-(difluoromethyl)-1H-benzimidazol-1-yl]-6-(4-morpholinyl)-N-(3-pyridinyl)-1,3,5-triazin-2-amine]	< 100 nM	< 100 nM	< 100 nM	100 to 1000 nM	100 to 1000 nM	228 to 230 °C
FC(F)c1nc2ccccc2n1-c1nc(Nc2cncnc2)nc(N2CCOCC2)n1 [Example 21, 4-[2-(difluoromethyl)-1H-benzimidazol-1-yl]-6-(4-morpholinyl)-N-(5-pyrimidinyl)-1,3,5-triazin-2-amine]	< 100 nM		< 100 nM	100 to 1000 nM	100 to 1000 nM	290 to 292 °C
COc1ccncc1Nc1nc(N2CCOCC2)nc(-n2c(C(F)F)nc3c(OC)cccc32)n1 [Example 27, 4-[2-(difluoromethyl)-4-methoxy-1H-benzimidazol-1-yl]-N-(4-methoxy-3-pyridinyl)-6-(4-morpholinyl)-1,3,5-triazin-2-amine]	< 100 nM	100 to 1000 nM	< 100 nM	100 to 1000 nM	< 100 nM	239 to 241 °C
FC(F)c1nc2ccccc2n1-c1nc(Nc2cnccn2)nc(N2CCOCC2)n1 [Example 22, 4-[2-(difluoromethyl)-1H-benzimidazol-1-yl]-6-(4-morpholinyl)-N-(2-pyrazinyl)-1,3,5-triazin-2-amine]	< 100 nM		< 100 nM	100 to 1000 nM	100 to 1000 nM	271 to 274 °C
FC(F)c1nc2ccccc2n1-c1nc(Nc2ccncn2)nc(N2CCOCC2)n1 [Example 20, 4-[2-(difluoromethyl)-1H-benzimidazol-1-yl]-6-(4-morpholinyl)-N-(4-pyrimidinyl)-1,3,5-triazin-2-amine]	< 100 nM		< 100 nM	100 to 1000 nM	100 to 1000 nM	233 to 235 °C
COc1ncc(Nc2nc(N3CCOCC3)nc(-n3c(C(F)F)nc4c(OC)cccc43)n2)cn1 [Example 40, 4-[2-(difluoromethyl)-4-methoxy-1H-benzimidazol-1-yl]-N-(2-methoxy-5-pyrimidinyl)-6-(4-morpholinyl)-1,3,5-triazin-2-amine]	< 100 nM	100 to 1000 nM	< 100 nM	100 to 1000 nM	100 to 1000 nM	
FC(F)c1nc2ccccc2n1-c1nc(Nc2cnc3ccccc3c2)nc(N2CCOCC2)n1 [Example 18, N-[4-[2-(difluoromethyl)-1H-benzimidazol-1-yl]-6-(4-morpholinyl)-1,3,5-triazin-2-yl]-3-quinolinamine]	100 to 1000 nM		100 to 1000 nM	100 to 1000 nM	100 to 1000 nM	270 to 273 °C
